Source: ChEMBL document CHEMBL1152063, “4-Substituted proline derivatives that inhibit angiotensin converting enzyme and neutral endopeptidase 24.11” (Bioorg Med Chem Lett, 1994)
pIC50, pKi: −log10 of the molar value.

Assays:
[1] = target: Angiotensin-converting enzyme (Homo sapiens, UniProt P12821); test: In vitro inhibition against angiotensin converting enzyme (ACE)
Neprilysin = target: T1, Neprilysin (Rattus norvegicus, UniProt P07861); test: In vitro inhibition against neutral endopeptidase 24.11 (NEP) in rat kidney cortex membrane; format: cell membranes
T1 sequence (P07861 whole entry): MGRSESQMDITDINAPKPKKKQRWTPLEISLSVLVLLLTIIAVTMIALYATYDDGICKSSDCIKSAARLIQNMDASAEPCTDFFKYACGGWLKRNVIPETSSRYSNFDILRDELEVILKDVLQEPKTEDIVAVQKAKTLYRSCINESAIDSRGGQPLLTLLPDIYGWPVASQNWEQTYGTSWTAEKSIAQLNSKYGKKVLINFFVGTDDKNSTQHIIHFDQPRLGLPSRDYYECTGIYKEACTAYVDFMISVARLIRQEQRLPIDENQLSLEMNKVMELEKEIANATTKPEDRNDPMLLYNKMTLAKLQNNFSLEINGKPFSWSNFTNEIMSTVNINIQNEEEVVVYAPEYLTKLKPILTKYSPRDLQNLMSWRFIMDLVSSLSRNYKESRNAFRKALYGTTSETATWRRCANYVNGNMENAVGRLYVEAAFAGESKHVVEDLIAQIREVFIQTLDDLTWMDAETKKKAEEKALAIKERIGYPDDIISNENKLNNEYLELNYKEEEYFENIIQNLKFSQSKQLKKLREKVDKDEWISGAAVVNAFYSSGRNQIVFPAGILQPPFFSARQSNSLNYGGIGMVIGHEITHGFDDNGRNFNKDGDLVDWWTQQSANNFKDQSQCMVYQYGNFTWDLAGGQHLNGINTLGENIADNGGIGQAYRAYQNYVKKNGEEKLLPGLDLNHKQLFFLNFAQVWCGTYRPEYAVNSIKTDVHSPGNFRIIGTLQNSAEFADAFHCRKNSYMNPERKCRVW

Sequence of Angiotensin-converting enzyme (P12821 whole entry): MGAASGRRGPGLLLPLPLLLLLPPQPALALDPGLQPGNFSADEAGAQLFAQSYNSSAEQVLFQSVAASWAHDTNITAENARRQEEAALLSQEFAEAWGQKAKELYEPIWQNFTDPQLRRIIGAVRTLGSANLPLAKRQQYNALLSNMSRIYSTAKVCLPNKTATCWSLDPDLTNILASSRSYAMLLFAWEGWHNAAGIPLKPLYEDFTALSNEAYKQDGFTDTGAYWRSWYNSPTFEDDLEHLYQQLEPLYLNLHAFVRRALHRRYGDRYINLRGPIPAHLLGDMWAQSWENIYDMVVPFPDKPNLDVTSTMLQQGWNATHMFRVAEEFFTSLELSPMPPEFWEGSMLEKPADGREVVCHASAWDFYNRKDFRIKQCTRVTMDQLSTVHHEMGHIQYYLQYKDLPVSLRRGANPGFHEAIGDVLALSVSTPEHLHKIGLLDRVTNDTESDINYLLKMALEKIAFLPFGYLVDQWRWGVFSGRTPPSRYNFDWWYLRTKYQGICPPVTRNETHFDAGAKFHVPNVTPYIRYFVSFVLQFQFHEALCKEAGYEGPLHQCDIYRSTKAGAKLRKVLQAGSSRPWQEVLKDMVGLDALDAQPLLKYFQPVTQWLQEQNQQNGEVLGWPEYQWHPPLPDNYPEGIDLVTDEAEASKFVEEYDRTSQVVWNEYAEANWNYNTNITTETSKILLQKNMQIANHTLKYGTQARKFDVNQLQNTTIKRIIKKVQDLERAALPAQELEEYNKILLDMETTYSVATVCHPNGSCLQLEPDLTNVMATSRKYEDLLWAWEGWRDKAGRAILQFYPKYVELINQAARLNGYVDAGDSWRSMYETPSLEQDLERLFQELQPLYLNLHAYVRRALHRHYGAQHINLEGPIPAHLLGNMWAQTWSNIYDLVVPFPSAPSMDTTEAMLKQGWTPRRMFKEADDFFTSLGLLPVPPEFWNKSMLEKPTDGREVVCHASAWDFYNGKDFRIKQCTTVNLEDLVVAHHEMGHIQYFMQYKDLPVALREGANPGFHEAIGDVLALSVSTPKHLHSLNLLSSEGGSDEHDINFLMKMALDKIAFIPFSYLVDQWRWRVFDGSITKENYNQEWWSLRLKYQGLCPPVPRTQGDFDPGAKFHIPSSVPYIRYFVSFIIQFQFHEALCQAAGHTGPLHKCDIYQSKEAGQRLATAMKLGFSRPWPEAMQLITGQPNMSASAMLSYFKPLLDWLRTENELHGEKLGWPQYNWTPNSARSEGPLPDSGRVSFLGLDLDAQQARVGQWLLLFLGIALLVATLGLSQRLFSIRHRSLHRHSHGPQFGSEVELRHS

| Structure (SMILES) | pIC50 [1] | pIC50 (Neprilysin) | pKi (Neprilysin) |
| --- | --- | --- | --- |
| C[C@H](N[C@@H](CCc1ccccc1)C(=O)O)C(=O)N1C[C@@H](NC(=O)C(CS)Cc2ccccc2)C[C@H]1C(=O)O (some centres not stated) | 7.38 | 6.83 |  |
| C[C@H](CS)C(=O)N1C[C@@H](NC(=O)C(CS)Cc2ccccc2)C[C@H]1C(=O)O (some centres not stated) | 7.06 | 7.85 |  |
| O=C(O)CCCCCCNC(=O)C(CS)Cc1ccccc1 (configuration not stated) |  |  | 7.59 |
| C[C@H](N[C@@H](CCc1ccccc1)C(=O)O)C(=O)N1C[C@@H](NC(=O)NC(CS)Cc2ccccc2)C[C@H]1C(=O)O (some centres not stated) | 7.37 | 5.91 |  |
| C[C@H](CS)C(=O)N1C[C@@H](NC(=O)NC(CS)Cc2ccccc2)C[C@H]1C(=O)O (some centres not stated) | 6.83 | 6.93 |  |
| C[C@H](N[C@@H](CCc1ccccc1)C(=O)O)C(=O)N1C[C@H](OC(=O)NC(CS)Cc2ccccc2)C[C@H]1C(=O)O (some centres not stated) | 6.30 | < 6.00 |  |
| C[C@H](N[C@@H](CCc1ccccc1)C(=O)O)C(=O)N1C[C@H](NC(=O)C(CS)Cc2ccccc2)C[C@H]1C(=O)O (some centres not stated) | 6.60 | < 6.00 |  |
| C[C@H](CS)C(=O)N1C[C@@H](NC(=O)C(CS)Cc2ccc(-c3ccccc3)cc2)C[C@H]1C(=O)O (some centres not stated) | 6.16 | 7.70 |  |
| C[C@H](CS)C(=O)N1C[C@H](NC(=O)C(CS)Cc2ccccc2)C[C@H]1C(=O)O (some centres not stated) | 7.74 | 6.07 |  |
